The values below come from PubChem BioAssay AID328 (DTP/NCI, 2004).

Values joined by “and” are separate entries in the source; they are usually repeats but may differ in a detail not shown here. Equal values may be shown once. Inconclusive results and toxic doses are left out.

The test has as its system BDF1 mice, P388 leukemia ip, median survival T/C. As to the kind of experiment: NCI In Vivo Anticancer Drug Screen. Data for tumor model P388 Leukemia (intraperitoneal) in B6D2F1 (BDF1) mice. Particulars: endpoint: median survival time, higher = longer survival. The procedure, abridged:
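Transplantable tumour in mice; compound vs vehicle dosing; survival scored; ratio of treated to control reported.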

[1] abbreviates: dose: 3.13 mg/kg/injection, schedule: Q01DX009 (ip), vehicle: saline.
The mark [2] stands for this setting: dose: 12.5 mg/kg/injection, schedule: Q01DX009 (ip), vehicle: saline.
Where [3] appears, read: dose: 100.0 mg/kg/injection, schedule: Q04DX003 (ip), vehicle: saline with Tween-80.
Setting [4] is: dose: 400.0 mg/kg/injection, schedule: Q04DX003 (ip), vehicle: saline with Tween-80.

Consider `Cc1ccnc(=O)[nH]1`, for which the T/C is 103 % of control under setting [1]; 115 % of control (dose: 6.25 mg/kg/injection, schedule: Q01DX009 (ip), vehicle: saline); 99 % of control under setting [2]; 105 % of control (dose: 25.0 mg/kg/injection, schedule: Q01DX009 (ip), vehicle: saline).
For `Cc1ccc(C(=O)C(Br)C(Br)c2ccccc2)cc1` (stereo unspecified), the T/C reads like this: under setting [3], 95 % of control; (dose: 200.0 mg/kg/injection, schedule: Q04DX003 (ip), vehicle: saline with Tween-80) 94 % of control; under setting [4], 103 % of control.
As to `O=C(c1cc(C(F)(F)F)cc(C(F)(F)F)c1)N1CC1`, the T/C (dose: 3.12 mg/kg/injection, schedule: Q01DX009 (ip), vehicle: water) was 100 % of control; the T/C (dose: 6.25 mg/kg/injection, schedule: Q01DX009 (ip), vehicle: water) was 105 % of control; the T/C (dose: 12.5 mg/kg/injection, schedule: Q01DX009 (ip), vehicle: water) is 114 % of control; the T/C (dose: 25.0 mg/kg/injection, schedule: Q01DX009 (ip), vehicle: water) is 100 % of control; the T/C (dose: 50.0 mg/kg/injection, schedule: Q01DX009 (ip), vehicle: water) was 110 % of control.
Take `N#CCCN1CCCCCC1`: the T/C reads like this: (dose: 15.0 mg/kg/injection, schedule: Q01DX009 (ip), vehicle: saline with Tween-80) 104 % of control; (dose: 30.0 mg/kg/injection, schedule: Q01DX009 (ip), vehicle: saline with Tween-80) 89 % of control; (dose: 60.0 mg/kg/injection, schedule: Q01DX009 (ip), vehicle: saline with Tween-80) 98 % of control.
In the case of `CCCCCCCCOB(OCCCCCCCC)OCCCCCCCC`, the T/C is 91 % of control (dose: 25.0 mg/kg/injection, schedule: Q04DX003 (ip), vehicle: saline with Tween-80); 100 % of control (dose: 50.0 mg/kg/injection, schedule: Q04DX003 (ip), vehicle: saline with Tween-80); 91 % of control and 100 % of control under setting [3].
Regarding `c1ccc(C(c2ccccc2)[n+]2ccccc2)cc1`, the T/C runs as follows: under setting [1], 91 % of control; under setting [2], 114 % of control.
`CC1CC[N-]CC1.CC1CC[N-]CC1.CC1CC[N-]CC1.CC1CC[N-]CC1.[Pt+4]`: the T/C by setting is: (dose: 0.09 mg/kg/injection, schedule: Q01DX009 (ip), vehicle: saline) 88 % of control; (dose: 0.19 mg/kg/injection, schedule: Q01DX009 (ip), vehicle: saline) 93 % of control; (dose: 0.23 mg/kg/injection, schedule: Q01DX009 (ip), vehicle: saline) 88 % of control; (dose: 0.25 mg/kg/injection, schedule: Q01DX009 (ip), vehicle: saline) 102 % of control; (dose: 0.39 mg/kg/injection, schedule: Q01DX009 (ip), vehicle: saline) 92 % of control; (dose: 0.5 mg/kg/injection, schedule: Q01DX009 (ip), vehicle: saline) 102 % of control. Further, the T/C (dose: 0.65 mg/kg/injection, schedule: Q01DX009 (ip), vehicle: saline) is 92 % of control; the T/C (dose: 0.78 mg/kg/injection, schedule: Q01DX009 (ip), vehicle: saline) was 88 % of control and 105 % of control; the T/C (dose: 1.0 mg/kg/injection, schedule: Q01DX009 (ip), vehicle: saline) is 112 % of control; the T/C (dose: 1.56 mg/kg/injection, schedule: Q01DX009 (ip), vehicle: saline) was 90 % of control; the T/C (dose: 1.56 mg/kg/injection, schedule: Q04DX003 (ip), vehicle: saline) was 109 % of control; the T/C (dose: 2.0 mg/kg/injection, schedule: Q01DX009 (ip), vehicle: saline) was 103 % of control. In addition, the T/C (dose: 3.12 mg/kg/injection, schedule: Q04DX003 (ip), vehicle: saline) is 95 % of control.
Consider `CN(C)CC/C=C1\c2ccccc2Sc2ccc(Cl)cc21`, for which the T/C runs as follows: (dose: 3.75 mg/kg/injection, schedule: Q01DX001 (ip), vehicle: Klucel (hydroxypropylcellulose) (HPC)) 112 % of control; (dose: 7.5 mg/kg/injection, schedule: Q01DX001 (ip), vehicle: Klucel (hydroxypropylcellulose) (HPC)) 110 % of control; (dose: 15.0 mg/kg/injection, schedule: Q01DX001 (ip), vehicle: Klucel (hydroxypropylcellulose) (HPC)) 112 % of control; (dose: 30.0 mg/kg/injection, schedule: Q01DX001 (ip), vehicle: Klucel (hydroxypropylcellulose) (HPC)) 103 % of control; (dose: 60.0 mg/kg/injection, schedule: Q01DX001 (ip), vehicle: Klucel (hydroxypropylcellulose) (HPC)) 114 % of control; (dose: 120.0 mg/kg/injection, schedule: Q01DX001 (ip), vehicle: Klucel (hydroxypropylcellulose) (HPC)) 118 % of control.
With `CC[C@]1(O)CC(OC2CC(N(C)C)C(O)C(C)O2)c2c(cc3c(c2O)C(=O)c2c(O)cccc2C3=O)[C@@H]1C(=O)OC` (stereo partly specified), the T/C by setting is: (dose: 1.25 mg/kg/injection, schedule: Q01DX001 (ip), vehicle: saline) 104 % of control and 110 % of control; (dose: 2.5 mg/kg/injection, schedule: Q01DX001 (ip), vehicle: saline) 100 % of control and 109 % of control; (dose: 5.0 mg/kg/injection, schedule: Q01DX001 (ip), vehicle: saline) 100 % of control; (dose: 10.0 mg/kg/injection, schedule: Q01DX001 (ip), vehicle: saline) 100 % of control.
`Cc1c2ccccc2c(C)c2c1ccc1ccccc12`: the T/C runs as follows: (dose: 1.7 mg/kg/injection, schedule: Q01DX009 (ip), vehicle: saline with Tween-80) 172 % of control; (dose: 2.6 mg/kg/injection, schedule: Q01DX009 (ip), vehicle: saline with Tween-80) 163 % of control; (dose: 4.0 mg/kg/injection, schedule: Q01DX009 (ip), vehicle: saline with Tween-80) 177 % of control; (dose: 6.0 mg/kg/injection, schedule: Q01DX009 (ip), vehicle: saline with Tween-80) 168 % of control; (dose: 13.0 mg/kg/injection, schedule: Q01DX009 (ip), vehicle: saline with Tween-80) 172 % of control.
For the compound `CC1CNCC(C)N1C(=O)c1ccccc1` (stereo unspecified), the T/C reads like this: (dose: 0.1 mg/kg/injection, schedule: Q01DX009 (ip), vehicle: water) 96 % of control; (dose: 0.2 mg/kg/injection, schedule: Q01DX009 (ip), vehicle: water) 105 % of control; (dose: 0.4 mg/kg/injection, schedule: Q01DX009 (ip), vehicle: water) 115 % of control; (dose: 0.78 mg/kg/injection, schedule: Q04DX003 (ip), vehicle: water) 97 % of control; (dose: 1.56 mg/kg/injection, schedule: Q04DX003 (ip), vehicle: water) 104 % of control; (dose: 3.12 mg/kg/injection, schedule: Q04DX003 (ip), vehicle: water) 104 % of control. Where the note is “dose: 6.25 mg/kg/injection, schedule: Q04DX003 (ip), vehicle: water”, the T/C is 88 % of control.
With `CC1OC(Oc2c(-c3cc(O)c(O)c(O)c3)oc3cc(O)cc(O)c3c2=O)C(O)C(O)C1O` (stereo unspecified), the T/C is 119 % of control (dose: 50.0 mg/kg/injection, schedule: Q01DX009 (ip), vehicle: saline with Tween-80) and 100 % of control (dose: 100.0 mg/kg/injection, schedule: Q01DX009 (ip), vehicle: saline with Tween-80).
Turning to `CNNCc1ccc(C(=O)NC(C)C)cc1`, the T/C was 100 % of control (dose: 37.5 mg/kg/injection, schedule: Q01DX010 (ip), vehicle: saline); 112 % of control and 116 % of control (dose: 100.0 mg/kg/injection, schedule: Q01DX009 (ip), vehicle: saline); 106 % of control (dose: 120.0 mg/kg/injection, schedule: Q01DX009 (ip), vehicle: saline); 123 % of control (dose: 125.0 mg/kg/injection, schedule: Q01DX009 (ip), vehicle: saline); 180 % of control (dose: 225.0 mg/kg/injection, schedule: Q01DX009 (ip), vehicle: saline); 161 % of control (dose: 250.0 mg/kg/injection, schedule: Q01DX009 (ip), vehicle: saline). For the setting “dose: 400.0 mg/kg/injection, schedule: Q01DX001 (ip), vehicle: saline”, the T/C was 109 % of control.
In the case of `C[N+](C)(C)c1ccc2c(c1)CCC/C2=N\N`, the T/C (dose: 6.25 mg/kg/injection, schedule: Q04DX003 (ip), vehicle: saline with Tween-80) is 94 % of control.
On to `CCOC(CCC#N)c1ccccc1` (stereo unspecified), for which the T/C by setting is: (dose: 266.0 mg/kg/injection, schedule: Q04DX003 (ip), vehicle: saline with Tween-80) 114 % of control; under setting [4], 114 % of control; (dose: 600.0 mg/kg/injection, schedule: Q04DX003 (ip), vehicle: saline with Tween-80) 119 % of control.
Regarding `CN1CC([N+](=O)[O-])C(=O)C([N+](=O)[O-])C1` (stereo unspecified), the T/C runs as follows: (dose: 50.0 mg/kg/injection, schedule: Q01DX005 (ip), vehicle: saline with Tween-80) 92 % of control; (dose: 100.0 mg/kg/injection, schedule: Q01DX005 (ip), vehicle: saline with Tween-80) 87 % of control; (dose: 200.0 mg/kg/injection, schedule: Q01DX005 (ip), vehicle: saline with Tween-80) 103 % of control.
